According to ChEMBL document CHEMBL1147835, “A practical synthesis of the major 3-hydroxy-2-pyrrolidinone metabolite of a potent CDK2/cyclin A inhibitor” (Bioorg Med Chem Lett, 2006):

Legend:
[1] = biological target: Cyclin-dependent kinase 2/cyclin A (Homo sapiens, UniProt P24941); test: Inhibition of CDK2/cyclin A; format: protein-complex assay
A2780 = test: Antiproliferative activity against human A2780 cells; format: functional, cell-based

| IC50 [1] [nM] | IC50 (A2780) [nM] | SMILES |
| --- | --- | --- |
| 27 | 2200 | C[C@H](C(=O)Nc1cc(C2CC2)n[nH]1)c1ccc(N2CC[C@H](O)C2=O)cc1 |
| 27 | 1600 | C[C@H](C(=O)Nc1cc(C2CC2)n[nH]1)c1ccc(N2CC[C@@H](O)C2=O)cc1 |
